In patent US9289443B2, “Pharmaceutical composition and method for preventing or treating hepatitis C” (INDUSTRIAL TECHNOLOGY RESEARCH INSTITUTE, priority 2010, dated 2016):
Read-outs that look alike come from different tables or passages of the source.

How the values were obtained:
[1] = Cell cytotoxic test (MTT) on Huh-luc/neo-ET cells; type: cell-based; settings: human, concentration for 50% cell kill, two-day culture
Protocol: (§1) Cell Cytotoxic Test on Huh-luc/noe-ET Cells
(§2) Huh-luc/neo-ET cells with a concentration of 2.5×10^4 cells/100 μl/well were seeded into a 96 well culture plate (Corning Incorporation COSTAR, 3599) and placed into a cell incubator for culturing.
(§3) The next day, the oleanolic acid derivatives as listed in the following Tables 1 and 2 were diluted with a DMEM culture medium to the concentrations of 28.73 μg/ml, 9.57 μg/ml, 3.19 μg/ml, 1.06 μg/ml, 0.35 μg/ml, 0.11 μg/ml, 0.039 μg/ml and 0.013 μg/ml, respectively, or diluted to the concentrations of 114.92 μg/ml, 38.33 μg/ml, 12.77 μg/ml, 4.25 μg/ml, 1.42 μg/ml, 0.46 μg/ml, 0.16 μg/ml and 0.057 μg/ml, respectively. The initial medium in the 96 well culture plate was sucked out by a vacuum pump (DOAT-704AA) without removing the cells. Then, the culture medium containing the oleanolic acid derivatives were added into the 96 well culture plate containing 100 μl/well of the cells as the experiment groups, while the untreated culture mediums were added to the cells as a control.
(§4) After a two-day culture, the medium was removed and each well containing cells was washed by 100 μl of 1×PBS (1 mM KH2PO4, 10 mM Na2HPO4, 137 mM NaCl, 2.7 mM KCl) twice. Precipitates were recorded and PBS was removed. 50 μl of the medium containing 0.5 mg/ml of MTT (Sigma, M2128) was added into each well of the 96 well culture plate. The 96 well culture plate was placed in a CO2 culture incubator for 1 hour. Subsequently, 150 μl of DMSO (Riedel-de Haül, 60153) was added to each well of the 96 well culture plate and vortexed (KS shaker Type 670) to thoroughly mix the resulting purple precipitates. The 96 well culture plate was then placed in a continuous wave length microwell plate analysis system (Molecular Devices, SPECTRAMAX 190) to measure the absorbance of cells at a wavelength of 560 nm.
(§5) The average absorbance of the control was set as 100% of the cell survival rates (%) to calculate the cell survival rates (%) of the experiment groups with different concentrations of the oleanolic acid derivatives.
(§6) The cell survival rate was calculated by the following formula: Absorbance of the experiment group/Absorbance of the control×100%
(§7) The data of the cell survival rates for all experiment groups were plotted on an x-y graph to see the distribution. A trend line was obtained. […]

Huh-luc/neo-ET cells = assay: Cell cytotoxic test (MTT) on Huh-luc/neo-ET cells; type: cell-based; settings: two-day culture; for CC15: concentration for 15% cell kill; for CC50: concentration for 50% cell kill
Protocol: as §1, §2, §3, §4, §5, §6, §7

[2] = tested on: HCV replicon system (Huh-luc/neo-ET cell carrying I389luc-ubi-NS3-3'/ET); assay: Inhibition of the HCV replication by determining the firefly luciferase activity (HCV replicon system); type: cell-based, Hepatitis C virus; settings: for EW (CC50/IC50): ratio of CC50/IC50
From the text: HCV replicon system was used to test the effects of compounds on the treatment and prevention of hepatitis C. The HCV replicon system has been acknowledged as a screening tool for new drugs (Lohmann, V. et al., 1999, Replication of subgenomic hepatitis C virus RNAs in hepatoma cell line, Science. Vol. 285, 110-113; Bartenschlager, R. 2002, Hepatitis C virus replicons: potential role for drug development, Nature Reviews/Drug Discovery. Vol. 1, 911-916; Vorlijk, J. M. et al., 2003, A replicon-based bioassay for the measurement of interferons in patients with chronic hepatitis C, Journal of Virological Methods. 110:201-209). The HCV replicon system includes a Huh-luc/neo-ET cell carrying I389luc-ubi-NS3-3′/ET gene construct which monitors the replicative capability of the HCV. In the HCV replicon system, a firefly luciferase-ubiquitin-neomycin fusion protein is expressed by the translation of the internal ribosomal entry site (IRES) of the HCV, and the hepatitis C viral nonstructural proteins (NS3-5B), which includes protease, helicase and polymerase, are expressed by the translation of the IRES of the encephalomyocarditis virus (EMCV).
The IRES of the hepatitis C virus or the hepatitis C viral nonstructural proteins consist of a replication complex. When the replication complex is affected by the candidate compound, the activity of the HCV replicon system is inhibited and the activity of the luciferase is reduced. Accordingly, the inhibition of the HCV can be estimated by determining the activity of the intensity of the luciferase expressed by the Huh-luc/noe-ET cell.
Inhibition of the HCV Replication by Determining the Firefly Luciferase Activity
as §2
The oleanolic acid derivatives as listed in Table 2 were co-cultured with Huh-luc/neo-ET cells for 2 days. The mediums were washed twice by 100 μl of 1×PBS (1 mM KH2PO4, 10 mM Na2HPO4, 137 mM NaCl, 2.7 mM KCl) and PBS was removed. 35 μl of 1× passive lysis buffer (Promega, E1941) was added to the cells and vortexed for 10 minutes to thoroughly lysis the cells.
30 μl/well of the cell suspension was then added to a 96 well white plate (NUNC, 236108) for the measurement of the luciferase activity. Subsequently, 40 μl/well of luminescence analysis buffer and 20 μl/well of luminescence substrate (1 mM D-Luciferin) were added into the 96 well white plates. The luciferase activity (Rlu/s) was measured by a microplate luminescence meter (Berthold, MPL4) immediately.
The luciferase activity of the control was set as a standard to calculate the inhibition rates (%) of HCV of the experiment groups. The inhibition rates was calculated by the following formula: […]
After the test compounds were serial diluted and the inhibition rates of the HCV replication were determined at different concentrations, the concentration at 50% inhibition of the HCV replication (IC50) was calculated by grafit5 software (Erithacus Software).
For each experiment, 0.5 ng/ml and 0.1 ng/ml of the PEG IFN alpha-2a were used as positive controls for the IC50 test. Meanwhile, 1 μg/ml of cyclosporine A (CsA) was also used as a positive control for the IC50 test.

[3] = Hepatitis C virus, Huh-luc/neo-ET, 48 h, compound concentration 10 μM, 2 days co-culture, luciferase activity, read-out: Inhibition rate (%)
[4] = Hepatitis C virus, concentration for 50% inhibition of the HCV replication, Huh-luc/neo-ET replicon cells, read-out: IC50
[5] = compound concentration 10 μM, 2 days co-culture, luciferase activity
[6] = Hepatitis C virus, Huh-luc/neo-ET
[7] = Hepatitis C virus, Huh-luc/neo-ET, 48 h, read-out: Inhibition rate (%)

SMILES	CC50 at 2 days [1]	CC15 (Huh-luc/neo-ET cells)	inhibition at 10 µM [2, 3]	EW (CC50/IC50) [2]	also measured
CC1(C)CC[C@]2(C(=O)O)CCC3=C([C@@H](CCl)C[C@@H]4[C@@]5(C)C[C@H](O)[C@H](O)[C@@](C)(C(=O)O)[C@@H]5CC[C@@]34C)[C@@H]2C1 [A01]	> 100 µM	>100 µM	41.5 ± 26.7%		
C[C@@H]1OC(O[C@H]2C(OC(=O)[C@]34CCC(C)(C)C[C@H]3C3=CC[C@@H]5[C@@]6(C)C[C@H](O)[C@@H]7OC8O[C@H](CO)[C@@H](O)[C@H](O)[C@H]8OC8OC[C@H](O)[C@H](O)[C@H]8OC(=O)CC(C)(O)CC(=O)OC[C@H]7[C@@H]6CC[C@@]5(C)[C@]3(C)CC4)OC[C@H](O)[C@@H]2O)[C@H](O)[C@H](OC2OC[C@@H](O)[C@H](O)[C@H]2O)[C@H]1O (stereo partly drawn) [A02]	15.2 µM	2.9 µM	96.7 ± 0.6%	44.71	IC50 [2, 4]: 0.34 ± 0.06 µM
C[C@H]1O[C@@H](O[C@H]2CC[C@@]3(C)[C@@H](CC[C@]4(C)[C@@H]3C=C[C@]35OC[C@@]6(CCC(C)(C)C[C@H]63)[C@@H](O)C[C@]54C)[C@]2(C)CO)[C@H](O)[C@@H](O[C@@H]2O[C@H](CO)[C@@H](O)[C@H](O)[C@H]2O)[C@H]1O [A03, Saikosaponin A]		12.7 µM			CC50 (Huh-luc/neo-ET cells): 23.1 µM; Inhibition rate (%) [2, 5]: 13.3 ± 8%
C[C@@H]1O[C@@H](O[C@@H]2[C@H](O)[C@@H](O)[C@H](O[C@H]3CC[C@@]4(C)C(CC[C@]5(C)C4C=C[C@]46OC[C@@]7(CCC(C)(C)CC74)[C@@H](O)C[C@]65C)C3(C)C)O[C@@H]2CO[C@@H]2O[C@H](CO)[C@@H](O)[C@H](O)[C@H]2O)[C@H](O)[C@H](O)[C@H]1O (stereo partly drawn) [A04, Saikosaponin C]		>100 µM			CC50 (Huh-luc/neo-ET cells): > 100 µM; Inhibition rate (%) [2, 5]: 3.1 ± 12.9%
C[C@H]1O[C@@H](O[C@H]2CC[C@@]3(C)[C@@H](CC[C@]4(C)[C@@H]3C=C[C@]35OC[C@@]6(CCC(C)(C)C[C@H]63)[C@H](O)C[C@]54C)[C@]2(C)CO)[C@H](O)[C@@H](O[C@@H]2O[C@H](CO)[C@@H](O)[C@H](O)[C@H]2O)[C@H]1O [A05, Saikosaponin D]		16.1 µM			CC50 (Huh-luc/neo-ET cells): 23.2 µM; Inhibition rate (%) [2, 5]: 50 ± 11.6%
CC(=O)OCC1OC(OC2COC(OC3COC(OC4C(OC5C(CO)OC(OC6CCC7(C)C(CCC8(C)C7CC=C7C9CC(C)(C)CCC9(C(=O)OC9OC(CO)C(O)C(O)C9OC9OCC(O)C(OC%10OCC(O)(CO)C%10O)C9O)C(O)CC78C)C6(C)C)C(O)C5O)OCC(O)C4O)C(O)C3O)C(O)C2O)C(OC(=O)/C=C/c2ccccc2)C(O)C1OC(C)=O (stereo not drawn) [A06]	25.2 µM	8.9 µM		2520	inhibition at 8 µM ([2]; Hepatitis C virus, Huh-luc/neo-ET, 48 h, compound concentration 8 μM, 2 days co-culture, luciferase activity, read-out: Inhibition rate (%)): 94.7 ± 1.1%; IC50 [2, 4]: 0.01 ± 0.004 µM
CC(=O)OC1C(OC(C)=O)[C@]2(CO)C(OC(C)=O)C[C@]3(C)C(=CCC4[C@@]5(C)CC[C@H](OC6OC(C(C)=O)C(O)C(OC7OC(CO)C(O)C(O)C7O)C6O)C(C)(C)C5CC[C@]43C)C2CC1(C)C (stereo partly drawn) [A07]	> 100 µM	>100 µM	10.3 ± 11.7%		
CC1(C)CC[C@]2(C(=O)O)CC[C@]3(C)C(=CCC4[C@@]5(C)C[C@@H](O)[C@H](O)[C@@](C)(COC(=O)/C=C/c6ccc(O)cc6)C5CC[C@]43C)C2C1 (stereo partly drawn) [A08]	72 µM	9.6 µM	0.4 ± 22%		
CC1(C)CC[C@]2(C(=O)O)CC[C@]3(C)C(=CCC4[C@@]5(C)C[C@@H](O)[C@H](OC(=O)/C=C/c6ccc(O)cc6)C(C)(C)C5CC[C@]43C)C2C1 (stereo partly drawn) [A09]	26.1 µM	3.1 µM	13.6 ± 0.5%		
C=CC(C)(O)CCCC(C)C(=O)OC1C(OC2OCC(OC3OC(CO)C(O)C(O)C3O)C(OC3OCC(O)C(OC4OC(CO)C(O)C(O)C4O)C3O)C2O)COC(OC(=O)C23CCC(C)(C)CC2C2=CCC4C5(C)CCC(OC6OC(CO)C(OC7OC(CO)C(O)C(OC8OCC(O)C(O)C8O)C7O)C(O)C6O)C(C)(C)C5CCC4(C)C2(C)CC3O)C1O (stereo not drawn) [A10]	39.1 µM	2.2 µM		126.13	inhibition at 2 µM ([2]; Hepatitis C virus, Huh-luc/neo-ET, 48 h, compound concentration 2 μM, 2 days co-culture, luciferase activity, read-out: Inhibition rate (%)): 95.7 ± 0.6%; IC50 [2, 4]: 0.31 ± 0.04 µM
C/C=C(/C)C(=O)OC1C(O)C(C)(C)CC2C3=CCC4C5(C)CCC(OC6OC(C(=O)O)C(O)C(OC7OCC(O)C(O)C7O)C6OC6OC(CO)C(O)C(O)C6O)C(C)(C)C5CCC4(C)C3(C)C(OC(C)=O)C(O)C21CO (stereo not drawn) [A11]	29.8 µM	6.1 µM			inhibition at 5 µM ([2]; Hepatitis C virus, Huh-luc/neo-ET, 48 h, compound concentration 5 μM, 2 days co-culture, luciferase activity, read-out: Inhibition rate (%)): 28.3 ± 9.1%
COc1ccc(/C=C/C(=O)OC2C(C)OC(OC(=O)C34CCC(C)(C)CC3C3=CCC5[C@@]6(C)CC[C@H](OC7OC(C(=O)O)C(O)C(O)C7OC7OC(CO)C(O)C(O)C7O)[C@@](C)(C=O)C6CC[C@@]5(C)[C@]3(C)C[C@H]4O)C(OC3OC(C)C(O)C(O)C3OC3OCC(O)C(O)C3O)C2O)cc1 (stereo partly drawn) [A12]	> 100 µM	>100 µM		1250	IC50 [2, 6]: 0.08 ± 0.003 µM; inhibition at 10 µM [2, 7]: 95.8 ± 1%
CC(=O)OC1C(OC(=O)C(C)C)C2(CO)C(CC1(C)C)C1=CCC3C4(C)CCC(OC5OC(C)C(OC6OC(C(=O)O)C(O)C(OC7OC(CO)C(O)C(O)C7OC7OC(CO)C(O)C(O)C7O)C6O)C(O)C5O)C(C)(C)C4CCC3(C)C1(C)C(O)C2O (stereo not drawn) [A13]	100 µM	16.1 µM		30.21	inhibition at 15 µM ([2]; Hepatitis C virus, Huh-luc/neo-ET, 48 h, compound concentration 15 μM, 2 days co-culture, luciferase activity, read-out: Inhibition rate (%)): 93 ± 0.4%; IC50 [2, 4]: 3.31 ± 0.29 µM
C/C=C(/C)C(=O)OC1CC(C)(C)CC2C3=CCC4C5(C)CCC(OC6OC(C)C(OC7OC(C(=O)O)C(O)C(OC8OC(CO)C(O)C(O)C8OC8OC(CO)C(O)C(O)C8O)C7O)C(O)C6O)C(C)(C)C5CCC4(C)C3(C)C(OC(=O)/C=C/C=C/C=C/CCC)C(O)C12CO (stereo not drawn) [A14]	> 100 µM	5.9 µM		51.28	IC50 [2, 6]: 1.95 ± 0.12 µM; inhibition at 5 µM [2, 7]: 89.3 ± 0.8%
